# Measurements published in PubChem BioAssay (NCI).
#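 Values below derive from 48-hour exposures of cells grown in 96-well plates, with endpoints linearly interpolated between the two concentrations bracketing the appropriate inhibition level. TGI: concentration producing complete growth inhibition.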
# What was measured:
# Test in all cases: NCI anticancer screen, dose series, 48 h
# SK-MEL-5 melanoma = tested on: SK-MEL-5 melanoma
# RXF-631 renal = tested on: RXF-631 renal
# NCI-H460 lung = tested on: NCI-H460 lung
# KM12 colon = tested on: KM12 colon
# HCT-116 colon = tested on: HCT-116 colon
# LXFL 529 NSCLC = tested on: LXFL 529 NSCLC
# SN12C renal = tested on: SN12C renal
# UACC-257 melanoma = tested on: UACC-257 melanoma
# K-562 leukemia = tested on: K-562 leukemia
# OVCAR-3 ovarian = tested on: OVCAR-3 ovarian
# UACC-62 melanoma = tested on: UACC-62 melanoma
# IGROV1 ovarian = tested on: IGROV1 ovarian
# CAKI-1 renal = tested on: CAKI-1 renal
# A549 NSCLC = tested on: A549 NSCLC
# OVCAR-5 ovarian = tested on: OVCAR-5 ovarian
# SF-295 CNS = tested on: SF-295 CNS
# HOP-18 NSCLC = tested on: HOP-18 NSCLC
# SK-MEL-28 melanoma = tested on: SK-MEL-28 melanoma
# SR leukemia = tested on: SR leukemia
# M14 melanoma = tested on: M14 melanoma
# 786-0 renal = tested on: 786-0 renal
# NCI-H522 lung = tested on: NCI-H522 lung
# DMS 114 small cell lung = tested on: DMS 114 small cell lung
# SW-620 colon = tested on: SW-620 colon
# CCRF-CEM leukemia = tested on: CCRF-CEM leukemia
# M19-MEL melanoma = tested on: M19-MEL melanoma
# DMS 273 small cell lung = tested on: DMS 273 small cell lung
# HOP-62 NSCLC = tested on: HOP-62 NSCLC
# XF 498 CNS = tested on: XF 498 CNS
# HT29 colon = tested on: HT29 colon
# MOLT-4 leukemia = tested on: MOLT-4 leukemia
# A498 renal = tested on: A498 renal
# COLO 205 colon = tested on: COLO 205 colon
# SK-MEL-2 melanoma = tested on: SK-MEL-2 melanoma
# UO-31 renal = tested on: UO-31 renal
# SNB-78 CNS = tested on: SNB-78 CNS
# MALME-3M melanoma = tested on: MALME-3M melanoma
# ACHN renal = tested on: ACHN renal
# LOX IMVI melanoma = tested on: LOX IMVI melanoma
# OVCAR-8 ovarian = tested on: OVCAR-8 ovarian
# NCI-H23 lung = tested on: NCI-H23 lung
# KM20L2 colon = tested on: KM20L2 colon
# RPMI-8226 leukemia = tested on: RPMI-8226 leukemia
# SK-OV-3 ovarian = tested on: SK-OV-3 ovarian
# EKVX NSCLC = tested on: EKVX NSCLC
# TK-10 renal = tested on: TK-10 renal
# SNB-75 CNS = tested on: SNB-75 CNS
# HCC-2998 colon = tested on: HCC-2998 colon
# NCI-H226 lung = tested on: NCI-H226 lung
# SF-268 CNS = tested on: SF-268 CNS
# SNB-19 CNS = tested on: SNB-19 CNS
# HOP-92 NSCLC = tested on: HOP-92 NSCLC
# U251 CNS = tested on: U251 CNS
# HL-60(TB) leukemia = tested on: HL-60(TB) leukemia
# DLD-1 colon = tested on: DLD-1 colon
# RXF 393 renal = tested on: RXF 393 renal
# HCT-15 colon = tested on: HCT-15 colon
# OVCAR-4 ovarian = tested on: OVCAR-4 ovarian
smiles,measurement,setting,value
CCSc1nnc(CSc2nc(-c3ccccc3)c(-c3ccccc3)[nH]2)n1-c1ccccc1,TGI,SK-MEL-5 melanoma,30.9 µM
same,TGI,RXF-631 renal,63.3 µM
same,TGI,NCI-H460 lung,36.9 µM
same,TGI,KM12 colon,32.1 µM
same,TGI,HCT-116 colon,36.2 µM
same,TGI,LXFL 529 NSCLC,67 µM
same,TGI,SN12C renal,29.7 µM
same,TGI,UACC-257 melanoma,33.6 µM
same,TGI,K-562 leukemia,56.3 µM
same,TGI,OVCAR-3 ovarian,35.2 µM
same,TGI,UACC-62 melanoma,30.2 µM
same,TGI,IGROV1 ovarian,42.3 µM
same,TGI,CAKI-1 renal,63.7 µM
same,TGI,A549 NSCLC,80.9 µM
same,TGI,OVCAR-5 ovarian,30.4 µM
same,TGI,SF-295 CNS,44.7 µM
same,TGI,HOP-18 NSCLC,30.4 µM
same,TGI,SK-MEL-28 melanoma,37 µM
same,TGI,SR leukemia,48.5 µM
same,TGI,M14 melanoma,34.9 µM
same,TGI,786-0 renal,45.7 µM
same,TGI,NCI-H522 lung,30.5 µM
same,TGI,DMS 114 small cell lung,39.1 µM
same,TGI,SW-620 colon,30.2 µM
same,TGI,CCRF-CEM leukemia,49.4 µM
same,TGI,M19-MEL melanoma,33.3 µM
same,TGI,DMS 273 small cell lung,66.3 µM
same,TGI,HOP-62 NSCLC,35.2 µM
same,TGI,XF 498 CNS,35.3 µM
same,TGI,HT29 colon,35.4 µM
same,TGI,MOLT-4 leukemia,40 µM
same,TGI,A498 renal,34.6 µM
same,TGI,COLO 205 colon,29.5 µM
same,TGI,SK-MEL-2 melanoma,45.6 µM
same,TGI,UO-31 renal,33 µM
same,TGI,SNB-78 CNS,> 100 µM
same,TGI,MALME-3M melanoma,44.2 µM
same,TGI,ACHN renal,33.4 µM
same,TGI,LOX IMVI melanoma,43.8 µM
same,TGI,OVCAR-8 ovarian,51.9 µM
same,TGI,NCI-H23 lung,40.8 µM
same,TGI,KM20L2 colon,32.1 µM
same,TGI,RPMI-8226 leukemia,46.1 µM
same,TGI,SK-OV-3 ovarian,60.8 µM
same,TGI,EKVX NSCLC,63.5 µM
same,TGI,TK-10 renal,57.1 µM
same,TGI,SNB-75 CNS,42.9 µM
same,TGI,HCC-2998 colon,36.5 µM
same,TGI,NCI-H226 lung,27.7 µM
same,TGI,SF-268 CNS,43.3 µM
same,TGI,SNB-19 CNS,34.2 µM
same,TGI,HOP-92 NSCLC,38.5 µM
same,TGI,U251 CNS,31.7 µM
same,TGI,HL-60(TB) leukemia,45.5 µM
same,TGI,DLD-1 colon,37 µM
same,TGI,RXF 393 renal,43.5 µM
same,TGI,HCT-15 colon,36 µM
CC(=O)OC1=C2CC3(C)OC(=O)CC(C)(C)C3=CC=C2C=C(C(C)C)C1=O (centres undefined),TGI,SK-MEL-5 melanoma,2.12 µM
same,TGI,RXF-631 renal,3.08 µM
same,TGI,NCI-H460 lung,3.31 µM
same,TGI,KM12 colon,3.07 µM
same,TGI,HCT-116 colon,1.35 µM
same,TGI,LXFL 529 NSCLC,0.299 µM
same,TGI,SN12C renal,2 µM
same,TGI,UACC-257 melanoma,1.1 µM
same,TGI,K-562 leukemia,> 100 µM
same,TGI,OVCAR-3 ovarian,2.41 µM
same,TGI,UACC-62 melanoma,0.725 µM
same,TGI,IGROV1 ovarian,2.46 µM
same,TGI,OVCAR-4 ovarian,0.915 µM
same,TGI,CAKI-1 renal,3.18 µM
same,TGI,A549 NSCLC,3.78 µM
same,TGI,OVCAR-5 ovarian,2.24 µM
same,TGI,SF-295 CNS,3.14 µM
same,TGI,HOP-18 NSCLC,2.39 µM
same,TGI,SK-MEL-28 melanoma,1.31 µM
same,TGI,SR leukemia,1.01 µM
same,TGI,M14 melanoma,0.912 µM
same,TGI,786-0 renal,0.388 µM
same,TGI,NCI-H522 lung,0.41 µM
same,TGI,DMS 114 small cell lung,1.56 µM
same,TGI,SW-620 colon,1.14 µM
same,TGI,CCRF-CEM leukemia,1.02 µM
same,TGI,M19-MEL melanoma,1.75 µM
same,TGI,DMS 273 small cell lung,2.65 µM
same,TGI,HOP-62 NSCLC,19.9 µM
same,TGI,HT29 colon,2.73 µM
same,TGI,MOLT-4 leukemia,0.756 µM
same,TGI,A498 renal,2.99 µM
same,TGI,COLO 205 colon,2.05 µM
same,TGI,SK-MEL-2 melanoma,1.65 µM
same,TGI,UO-31 renal,3.12 µM
same,TGI,SNB-78 CNS,0.985 µM
same,TGI,MALME-3M melanoma,1.17 µM
same,TGI,ACHN renal,1.76 µM
same,TGI,LOX IMVI melanoma,0.425 µM
same,TGI,OVCAR-8 ovarian,0.779 µM
same,TGI,NCI-H23 lung,1.47 µM
same,TGI,KM20L2 colon,3.38 µM
same,TGI,RPMI-8226 leukemia,0.56 µM
same,TGI,SK-OV-3 ovarian,3.54 µM
same,TGI,EKVX NSCLC,3.57 µM
same,TGI,TK-10 renal,2.51 µM
same,TGI,SNB-75 CNS,1.99 µM
same,TGI,HCC-2998 colon,2.15 µM
same,TGI,NCI-H226 lung,3.26 µM
same,TGI,SF-268 CNS,2.4 µM
same,TGI,SNB-19 CNS,3.28 µM
same,TGI,HOP-92 NSCLC,0.499 µM
same,TGI,U251 CNS,2.99 µM
same,TGI,HL-60(TB) leukemia,0.888 µM
same,TGI,DLD-1 colon,0.504 µM
same,TGI,RXF 393 renal,0.347 µM
same,TGI,HCT-15 colon,0.392 µM
